In this assay the test system is cultured human mast cells (CHMC). The assay can be described thus: CHMC low cell density IgE activation: tryptase assay. It counts as cell-based. As to conditions: IgE activation. The method in brief:
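Low-density CHMC, 1000-1500 cells/well in MT; 1 hr 37 °C; anti-IgE challenge 30 min 37 °C; supernatant tryptase via fluorogenic substrate, 30 min RT.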

Where [1] appears, read: Homo sapiens, Mast cell, low cell density CHMC, tryptase release, 3 pt, read-out: LD Tryptase, CHMC, IgE, 3 pt.
[2] abbreviates: Homo sapiens, Mast cell, low cell density CHMC, tryptase release, 8 pt, read-out: LD Tryptase, CHMC, IgE, 8 pt.
Where [3] appears, read: low cell density CHMC, tryptase, 3 pt, read-out: LD Tryptase, CHMC, IgE, 3 pt.
The mark [4] stands for this setting: Homo sapiens, Mast cell, low cell density CHMC, tryptase, 3 pt, read-out: LD Tryptase, CHMC, IgE, 3 pt.
Where [5] appears, read: Homo sapiens, Mast cell, low cell density CHMC, tryptase, 8 pt, read-out: LD Tryptase, CHMC, IgE, 8 pt.
Setting [6] is: low cell density CHMC, tryptase, 8 pt, read-out: LD Tryptase, CHMC, IgE, 8 pt.
The mark [7] stands for this setting: low cell density CHMC, tryptase release, 8 pt, read-out: LD Tryptase, CHMC, IgE, 8 pt.
The mark [8] stands for this setting: Homo sapiens, Mast cell, low cell density, 3 pt, read-out: LD Tryptase, CHMC, IgE, 3 pt.
[9] abbreviates: Homo sapiens, Mast cell, low cell density, 8 pt, read-out: LD Tryptase, CHMC, IgE, 8 pt.
Where [10] appears, read: low cell density, 8 pt, read-out: LD Tryptase, CHMC, IgE, 8 pt.
Where [11] appears, read: low cell density, 3 pt, read-out: LD Tryptase, CHMC, IgE, 3 pt.

Like-named read-outs stand apart in the source and are kept apart here. Some results are limits rather than exact numbers.

On to `Cc1cc(C)cc(Nc2ncc(F)c(Nc3ccc4c(c3)NC(=O)CS4)n2)c1` [Compound 301], for which the IC50 is less than 10 µM under setting [1] and less than 10 µM under setting [2].
On to “N4- (2,2-Dimethyl-3-oxo-4H-5-pyrid[1,4]oxazin-6-yl)-5-fluoro-N2- (4-methoxycarbonylphenyl)-2,4-pyrimidinediamine [Compound 1313]”, for which the IC50 under setting [3] is less than 10 µM.
Consider `COc1ccc(Nc2nc(Nc3ccc(C(N)=O)c(Cl)c3)ncc2F)cc1Cl` [Compound 1353], for which the IC50 was less than 10 µM under setting [4] and less than 10 µM under setting [5].
With `COc1cc(Nc2nc(Nc3ccc4cnn(CC5CCC5)c4c3)ncc2F)ccc1F` [Compound 733, N2-[1-(Cyclobuylmethyl)indazol-6-yl)-5-fluoro-N4-(4-fluoro-3-methoxyphenyl)-2,4-pyrimidinediamine], under setting [3], the IC50 was less than 10 µM.
As to `COc1cc(Nc2nc(Nc3cc(C)c(Cl)c(C)c3)ncc2F)cc(C(F)(F)F)c1` [Compound 339], the IC50 under setting [1] is more than 10 µM.
Take `COc1cc(Nc2ncc(F)c(Nc3ccc4c(c3)NC(=O)C(C)S4(=O)=O)n2)cc(OC)c1` (centres unmarked) [Compound 263, N2-(3,5-Dimethoxyphenyl)-N4-(dioxide-2-methyl-1,1,3-trioxo-4H-benzo[1,4]thiazin-6-yl)-5-fluoro-2,4-pyrimidinediamine]: the IC50 by setting is: under setting [1], less than 10 µM; under setting [2], less than 10 µM.
Regarding `Fc1cnc(Nc2ccc3cc[nH]c3c2)nc1Nc1cccc(OC(F)(F)F)c1` [Compound 326, 5-Fluoro-N2-(indol-6-yl)-N4-(3-trifluoromethoxyphenyl)-2,4-pyrimidinediamine], the IC50 under setting [1] is less than 10 µM and the IC50 under setting [2] is less than 10 µM.
In the case of `Cc1cc(Nc2ncc(F)c(Nc3cc(C4CC4)n[nH]3)n2)ccc1N1CCN(C)CC1` [Compound 1202], the IC50 was less than 10 µM under setting [4] and less than 10 µM under setting [5].
On to `Cc1cc(Nc2ncc(F)c(NC3CCCC3)n2)ccc1N1CCN(C)CC1` [Compound 1200], for which the IC50 under setting [4] was less than 10 µM.
`COc1ccc(Nc2ncc(F)c(Nc3ccc4c(c3)NC(=O)C(C)S4(=O)=O)n2)cc1Cl` (racemic) [Compound 286]: the IC50 under setting [2] is less than 10 µM.
With `COC(=O)CN1C(=O)C(C)(C)Oc2ccc(Nc3nc(Nc4cc(OC)c(OC)c(OC)c4)ncc3F)nc21` [Compound 690, N4-(2,2-Dimethyl-4-carbomethoxymethyl-3-oxo-5-pyrid[1,4]oxazin-6-yl)-5-fluoro-N2-(3,4,5-trimethoxyphenyl)-2,4-pyrimidinediamine], the IC50 under setting [6] is less than 10 µM.
In the case of `COc1ccc(Nc2ncc(F)c(Nc3n[nH]c(N)n3)n2)cc1Cl` [Compound 1253], the IC50 under setting [5] was more than 10 µM.
Consider `COc1cccc(Nc2ncc(F)c(Nc3ccc4c(c3)NC(=O)C(C)(C)O4)n2)c1C` [Compound 1062, N4-(2,2-Dimethyl-3-oxo-4H-benz[1,4]oxazin-6-yl)-5-fluoro-N2-(3-methoxy-2-methylphenyl)-2,4-pyrimidinediamine], for which the IC50 (Homo sapiens, Mast cell, low cell density CHMC, tryptase readout, 3 pt, read-out: LD Tryptase, CHMC, IgE, 3 pt) is less than 10 µM.
`COc1cc(Nc2ncc(F)c(Nc3ccc4c(n3)NC(=O)C(C)(C)O4)n2)cc(OC)c1OC.O=S(=O)(O)c1cccnc1` [Compound 678, N4-(2,2-Dimethyl-3-oxo-4H-5-pyrid[1,4]oxazin-6-yl)-5-fluoro-N2-(3,4,5-trimethoxyphenyl)-2,4-pyrimidinediamine 0.5 Pyridine-3-sulfonic Acid Salt]: the IC50 is, setting by setting: under setting [3], less than 10 µM; under setting [6], less than 10 µM.
For `CC1(C)Oc2ccc(Nc3nc(Nc4ccc5c(cnn5CCCN5C(=O)CCC5=O)c4)ncc3F)nc2NC1=O` [Compound 857, N4-(2,2-Dimethyl-3-oxo-4H-5-pyrid[1,4]oxazin-6-yl)-5-fluoro-N2-[1-[3-(N-succinimidopropyl)]indazol-5-yl]-2,4-pyrimidinediamine], the IC50 was less than 10 µM (low cell density CHMC, tryptase release, 3 pt, read-out: LD Tryptase, CHMC, IgE, 3 pt) and less than 10 µM under setting [7].
As to `C[C@@H]1Oc2ccc(Nc3nc(Nc4ccc5c(cnn5CCCN)c4)ncc3F)cc2NC1=O` [Compound 826, (S)-N2-[1-(3-Aminopropyl)indazol-5-yl]-5-fluoro-N4-(2-methyl-3-oxo-2H,4H-benz[1,4]oxazin-6-yl)-2,4-pyrimidinediamine], the IC50 under setting [2] is less than 10 µM.
In the case of `Cc1cc(C)cc(Nc2ncc(F)c(NCC3COc4ccccc4O3)n2)c1` (centres unmarked) [Compound 1256, N4-[ (2,3-Dihydro-1,4-benzodioxan-2-yl)methyl]-N2-(3,5-dimethylphenyl)-5-fluoro-2,4-pyrimidinediamine], the IC50 under setting [3] is less than 10 µM.
As to `CCN(CC)Cc1nc2cc(Nc3ncc(F)c(Nc4ccc5c(c4)NC(=O)[C@H](C)O5)n3)ccc2n1C` [Compound 973], the IC50 is, setting by setting: under setting [8], less than 10 µM; under setting [9], less than 10 µM.
`CN1CCN(c2ccc(Nc3ncc(F)c(NC4CC(C)(C)N(C)C(C)(C)C4)n3)cc2Cl)CC1` [Compound 1222]: the IC50 under setting [4] is more than 10 µM.
With `CCOC(=O)N1CCN(c2cccc(Nc3ncc(F)c(NC4CNC4)n3)c2)CC1` [Compound 1130], the IC50 under setting [4] was more than 10 µM.
Turning to `CNC(=O)COc1c(C)cc(Nc2ncc(F)c(Nc3ccc4c(c3)NC(=O)C(C)(C)O4)n2)cc1C` [Compound 574, N2-[3,5-dimethyl-4-(N-methylamino)carbonylmethyleneoxyphenyl]-N4-(2,2-dimethyl-3-oxo-4H-benz[1,4]oxazin-6-yl)-5-fluoro-2,4-pyrimidinediamine], the IC50 reads like this: (low cell density CHMC, tryptase release, 3 point, read-out: LD Tryptase, CHMC, IgE, 3 pt) less than 10 µM; (low cell density CHMC, tryptase release, 8 point, read-out: LD Tryptase, CHMC, IgE, 8 pt) less than 10 µM.
Regarding `COc1ccc(Nc2nc(Nc3ccc4c(c3)nc(CN3CCOCC3)n4C)ncc2F)cc1Cl` [Compound 955, N4-(3-Chloro-4-methoxyphenyl)-5-fluoro-N2-[1-methyl-2-(4-morpholinomethyl)benzimidazol-5-yl]-2,4-pyrimidinediamine], under setting [10], the IC50 is less than 10 µM.
Turning to `COc1cc(Nc2nc(Nc3ccc4c(c3)OCCO4)ncc2F)cc(OC)c1` [Compound 351, N4-(3,5-Dimethoxyphenyl)-N2-(3,4-ethylenedioxyphenyl)-5-fluoro-2,4-pyrimidinediamine], under setting [5], the IC50 is less than 10 µM.
Turning to `CC(C)n1ncc2ccc(Nc3ncc(F)c(Nc4ccc5c(c4)NC(=O)[C@H](C)O5)n3)cc21` [Compound 786, (S)-N4-[2-Methyl-3-oxo-2H,4H-benz[1,4]oxazin-6-yl]-5-fluoro-N2-[1-(1-methylethyl)indazol-6-yl]-2,4-pyrimidinediamine], the IC50 under setting [2] was less than 10 µM.
Consider `Cc1nc2cc(Nc3ncc(F)c(Nc4ccc5c(n4)NC(=O)C(C)(C)O5)n3)ccc2n1CCCO` [Compound 951, N4-(2,2-Dimethyl-3-oxo-4H-5-pyrido[1,4]oxazin-6-yl)-5-fluoro-N2-[1-(3-hydroxypropyl)-2-methylbenzimidazol-5-yl]-2,4-pyrimidinediamine], for which the IC50 reads like this: under setting [11], less than 10 µM; under setting [10], less than 10 µM.
As for `CN1CCN(c2cccc(Nc3ncc(F)c(Nc4ccc5c(n4)NC(=O)CO5)n3)c2)CC1` [Compound 1074, 5-Fluoro-N2-[3-(4-methylpiperazino)phenyl]-N4-(3-oxo-2H,4H-5-pyrid[1,4]oxazin-6-yl)-2,4-pyrimidinediamine], for the setting “low cell density CHMC, tryptase readout, 8 pt, read-out: LD Tryptase, CHMC, IgE, 8 pt”, the IC50 was less than 10 µM.
Regarding `COc1ccc(Nc2nc(Nc3ccc4c(c3)nc(C)n4C)ncc2F)cc1Cl` [Compound 895], under setting [8], the IC50 is less than 10 µM.
With “N2- (3,5-Dichloro-4-hydroxyphenyl)-5-fluoro-N4- (4-[N-[methoxycarbonylmethylene]aminocarbonyl]phenyl)-2,4-pyrimidinediamine [Compound 1329]”, the IC50 under setting [6] is less than 10 µM.
As to `C[C@@H]1Oc2ccc(Nc3nc(Nc4ccc5c(c4)[nH]c(=O)n5C)ncc3F)cc2NC1=O` [Compound 907], the IC50 under setting [8] is less than 10 µM and the IC50 under setting [9] was less than 10 µM.
Take `COc1cc(Nc2ncc(F)c(Nc3ccc4c(c3)NC(=O)C(C)S4)n2)cc(OC)c1` (centres unmarked) [Compound 270]: the IC50 under setting [2] is less than 10 µM.
On the same count and under the same terms, the result for `COc1ccc(Nc2nc(Nc3ccc4c(cnn4CCCNC(=O)C(C)(C)C)c3)ncc2F)cc1Cl` [Compound 848, N4-(3-Chloro-4-methoxyphenyl)-5-fluoro-N2-[1-(3-pivalamidopropyl)indazol-5-yl]-2,4-pyrimidinediamine] reads less than 10 µM.
In the case of `CCN(CC)Cc1nc2cc(Nc3ncc(F)c(Nc4ccc(OC)c(Cl)c4)n3)ccc2n1C` [Compound 971], the IC50 under setting [8] is less than 10 µM.
Regarding `CCn1c(C)nc2cc(Nc3ncc(F)c(Nc4ccc5c(n4)NC(=O)C(C)(C)O5)n3)ccc21` [Compound 936, N4-(2,2-Dimethyl-3-oxo-4H-5-pyrido[1,4]oxazin-6-yl)-N2-(1-ethyl-2-methylbenzimidazol-5-yl)-5-fluoro-2,4-pyrimidinediamine], under setting [11], the IC50 was less than 10 µM.
On to `COc1ccc(Nc2ncc(F)c(Nc3ccc4c(c3)NC(=O)C(C)(C)S4)n2)cc1Cl` [Compound 289], for which the IC50 under setting [7] is less than 10 µM.
Take `NC(=O)c1ccc(Nc2ncc(F)c(Nc3ccc(C(N)=O)cc3)n2)cc1` [Compound 1339]: the IC50 is more than 10 µM under setting [4] and more than 10 µM under setting [5].
